Test results: the NIST ThermoML archive (doi:10.1021/je1003065)

Assay: mn = molality of the nth substance listed, in mol/kg
Conditions: Liquid, Vibrating tube method

[Br-].[Li+] [lithium bromide] + CCO
Conditions | mass density [kg/m3]
353.15 K, 39784 kPa, m1 = 0.9499 | 834.79
353.15 K, 39945 kPa, m1 = 2.833 | 939.73
353.15 K, 39986 kPa, m1 = 0.2335 | 790.37
353.15 K, 40152 kPa, m1 = 0.5972 | 813.43
353.15 K, 49925 kPa, m1 = 0.9499 | 842.49
353.15 K, 49993 kPa, m1 = 0.5972 | 821.26
353.15 K, 59926 kPa, m1 = 0.9499 | 849.56
353.15 K, 60014 kPa, m1 = 0.2335 | 805.45
353.15 K, 60014 kPa, m1 = 2.833 | 952.95
353.15 K, 60225 kPa, m1 = 0.5972 | 828.81
353.15 K, 69845 kPa, m1 = 0.9499 | 856.11
353.15 K, 69979 kPa, m1 = 0.5972 | 835.44
353.15 K, 79924 kPa, m1 = 0.9499 | 862.38
353.15 K, 79968 kPa, m1 = 2.833 | 964.64
353.15 K, 80004 kPa, m1 = 0.2335 | 818.76
353.15 K, 80139 kPa, m1 = 0.5972 | 841.77
353.15 K, 90021 kPa, m1 = 0.9499 | 868.33
353.15 K, 99895 kPa, m1 = 2.833 | 975.38
353.15 K, 99925 kPa, m1 = 0.9499 | 873.94
353.15 K, 99987 kPa, m1 = 0.2335 | 829.93
353.16 K, 1827 kPa, m1 = 2.272 | 878.19
353.16 K, 2037 kPa, m1 = 0.5972 | 777.89
353.16 K, 5076 kPa, m1 = 2.272 | 881.19
353.16 K, 30024 kPa, m1 = 2.833 | 932.51
353.16 K, 50031 kPa, m1 = 0.2335 | 798.55
353.16 K, 69784 kPa, m1 = 2.833 | 958.82
353.16 K, 89993 kPa, m1 = 0.5972 | 847.35
353.17 K, 10149 kPa, m1 = 0.5972 | 786.15
353.17 K, 70025 kPa, m1 = 0.2335 | 812.93
353.18 K, 100098 kPa, m1 = 0.5972 | 852.48
353.2 K, 79893 kPa, m1 = 3.368 | 991.32
353.2 K, 89986 kPa, m1 = 3.368 | 996.68
353.2 K, 99526 kPa, m1 = 3.368 | 1001.5
353.21 K, 1063 kPa, m1 = 3.368 | 935.92
353.21 K, 4909 kPa, m1 = 3.368 | 939.35
353.21 K, 10311 kPa, m1 = 3.368 | 944.02
353.21 K, 30003 kPa, m1 = 3.368 | 959.64
353.21 K, 40073 kPa, m1 = 3.368 | 966.87
353.21 K, 49925 kPa, m1 = 3.368 | 973.5
353.21 K, 59786 kPa, m1 = 3.368 | 979.72
353.21 K, 69928 kPa, m1 = 3.368 | 985.74
353.22 K, 19643 kPa, m1 = 3.368 | 951.68
373.11 K, 79585 kPa, m1 = 2.272 | 924.75
373.12 K, 2208 kPa, m1 = 3.368 | 920.02
373.12 K, 5044 kPa, m1 = 3.368 | 922.8
373.12 K, 19844 kPa, m1 = 3.368 | 936.43
373.12 K, 59597 kPa, m1 = 2.272 | 911.69
373.12 K, 69993 kPa, m1 = 2.272 | 918.69
373.13 K, 10014 kPa, m1 = 3.368 | 927.55
373.13 K, 20555 kPa, m1 = 0.5972 | 780.15
373.13 K, 69957 kPa, m1 = 0.2335 | 799.09
373.14 K, 2369 kPa, m1 = 1.462 | 814.46
373.14 K, 2757 kPa, m1 = 0.5972 | 759.44
373.14 K, 10024 kPa, m1 = 0.2335 | 743.18
373.14 K, 10201 kPa, m1 = 0.5972 | 767.99
373.14 K, 29963 kPa, m1 = 3.368 | 944.93
373.14 K, 29993 kPa, m1 = 0.5972 | 788.87
373.14 K, 39934 kPa, m1 = 3.368 | 952.72
373.14 K, 49924 kPa, m1 = 3.368 | 960.01
373.14 K, 60080 kPa, m1 = 3.368 | 966.95
373.14 K, 69925 kPa, m1 = 3.368 | 973.28
373.14 K, 79738 kPa, m1 = 0.5972 | 829.02
373.14 K, 80004 kPa, m1 = 0.2335 | 806.27
373.14 K, 80063 kPa, m1 = 3.368 | 979.45
373.14 K, 89993 kPa, m1 = 3.368 | 985.2
373.14 K, 89994 kPa, m1 = 2.272 | 930.92
373.14 K, 99876 kPa, m1 = 3.368 | 990.71
373.15 K, 1026 kPa, m1 = 0.9499 | 780.35
373.15 K, 1235 kPa, m1 = 0.2335 | 732.64
373.15 K, 1415 kPa, m1 = 2.833 | 892.25
373.15 K, 5002 kPa, m1 = 2.833 | 895.82
373.15 K, 5004 kPa, m1 = 0.2335 | 737.23
373.15 K, 5019 kPa, m1 = 1.462 | 817.48
373.15 K, 5412 kPa, m1 = 0.9499 | 785.62
373.15 K, 10004 kPa, m1 = 2.833 | 900.66
373.15 K, 10068 kPa, m1 = 0.9499 | 790.99
373.15 K, 19935 kPa, m1 = 0.9499 | 801.67
373.15 K, 19957 kPa, m1 = 2.833 | 909.82
373.15 K, 19985 kPa, m1 = 0.2335 | 754.93
373.15 K, 29956 kPa, m1 = 2.833 | 918.4
373.15 K, 29974 kPa, m1 = 0.9499 | 811.66
373.15 K, 39236 kPa, m1 = 0.9499 | 820.14
373.15 K, 39984 kPa, m1 = 2.833 | 926.44
373.15 K, 40001 kPa, m1 = 0.2335 | 774.75
373.15 K, 49979 kPa, m1 = 2.272 | 904.77
373.15 K, 50002 kPa, m1 = 2.833 | 933.93
373.15 K, 50023 kPa, m1 = 0.9499 | 829.23
373.15 K, 59924 kPa, m1 = 2.833 | 940.87
373.15 K, 59926 kPa, m1 = 0.9499 | 836.92
373.15 K, 59977 kPa, m1 = 1.462 | 867.61
373.15 K, 59987 kPa, m1 = 0.2335 | 791.31
373.15 K, 69784 kPa, m1 = 2.833 | 947.33
373.15 K, 69895 kPa, m1 = 0.9499 | 844.11
373.15 K, 69979 kPa, m1 = 1.462 | 874.66
373.15 K, 69994 kPa, m1 = 0.5972 | 822.13
373.15 K, 79936 kPa, m1 = 0.9499 | 850.88
373.15 K, 80021 kPa, m1 = 2.833 | 953.61
373.15 K, 89926 kPa, m1 = 2.833 | 959.33
373.15 K, 89934 kPa, m1 = 0.5972 | 835.63
373.15 K, 89945 kPa, m1 = 0.9499 | 857.23
373.15 K, 89956 kPa, m1 = 0.2335 | 812.23
373.15 K, 99845 kPa, m1 = 2.833 | 964.74
373.15 K, 99866 kPa, m1 = 0.5972 | 840.98
373.15 K, 99874 kPa, m1 = 0.2335 | 817.91
373.15 K, 99968 kPa, m1 = 0.9499 | 863.3
